Patent publication US8809280B2, “Therapeutic peptides” (Lytix Biopharma AS, priority 2009, dated 2014)
In brackets after ≈: the same amount, converted by molar mass.

Key:
Format in all cases: cell-based
[1] = tested on: Staphylococcus aureus (ATTC 25923); assay: microbe, parasite or virus in culture; details: Example 2, values separated by / are repeat tests
Method in brief: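 Di-TFA salts tested in duplicate at 0.5–200 μg/ml against exponential-phase bacteria at 2×10^6 cfu/ml grown in 2% peptone water. Growth judged by well turbidity, with no-peptide and gentamicin controls.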

[2] = tested on: methicillin resistant Staphylococcus aureus (ATCC 33591); assay: microbe, parasite or virus in culture; details: Staphylococcus aureus, ATCC 33591 / MRSA, Example 2; values separated by / are repeat tests; read-out: Antimicrobial potency (MIC) MRSA
Method in brief: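 Di-TFA salts tested in duplicate at 200 down to 0.5 μg/ml against exponentially grown bacteria at 2×10^6 cfu/ml. Growth judged by well turbidity, with no-peptide and gentamicin controls.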

[3] = tested on: methicillin resistant Staphylococcus epidermidis (ATCC 27626); assay: microbe, parasite or virus in culture; details: Example 2, values separated by / are repeat tests
Method in brief: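 Exponentially grown bacteria (2% peptone water) at 2×10^6 cfu/ml exposed in duplicate to di-TFA salts at 0.5–200 μg/ml. Growth or no growth judged by well turbidity; no-peptide and gentamicin controls included.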

[4] = tested on: Escherichia coli (ATTC 25922); assay: microbe, parasite or virus in culture; details: Escherichia coli, Example 2; values separated by / are repeat tests; read-out: Antimicrobial potency (MIC) E. coli
Method in brief: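 Broth dilution in 2% Bacto Peptone water, inoculum 2×10^6 cfu/ml of exponential-phase bacteria; compounds (di-TFA salts) tested in duplicate at 200 down to 0.5 μg/ml. Growth judged by well turbidity, with no-peptide negative and gentamicin positive controls.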

human red blood cells = assay: cells; details: Homo sapiens, Erythrocyte; Example 2; highest concentration tested 1000 μg/ml; * low solubility in the test media; read-out: Toxicity RBC (EC50)
Method in brief: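 Washed heparinized RBCs, diluted to 10% hematocrit then to 1% v/v final, incubated with compounds in PBS (1–1000 μg/mL) for 1 h at 37 °C with agitation. Hemoglobin release read at 405 nm against PBS (0%) and 0.1% Triton X-100 (100%); value reported is concentration giving 50% hemolysis.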

A20 = assay: cells
Protocol: Cancer Cell Lines A20 or MethA Anticancer assays: 500 μg/ml

MRC-5 [5] = assay: Toxicity assay MRC-5; details: highest concentration tested 500 μg/ml
Protocol: Cells for Toxicity Studies Used MRC-5 and human RBC MRC-5 assay: 500 μg/ml

DU-145 = assay: Compound 7 panel screening; details: Homo sapiens, prostate carcinoma
Protocol: (§1) Compound 7 described in Example 2 was screened against two normal cell lines and nine cancer cell lines.
(§2) All cell lines were of human origin. Stock solution of compound 7 was dissolved in assay media containing 10% DMSO. Three parallel experiments were performed against each cell line.

FEMX = assay: Compound 7 panel screening; details: Homo sapiens, Fem-X, skin melanoma
Protocol: as §1, §2

HT-29 = assay: Compound 7 panel screening; details: Homo sapiens, colon colorectal adenocarcinoma
Protocol: as §1, §2

HUV-EC-C = assay: Compound 7 panel screening; details: Homo sapiens, umbilical vein, normal, endothelial
Protocol: as §1, §2

Kelly = assay: Compound 7 panel screening; details: Homo sapiens, neuroblastoma
Protocol: as §1, §2

MDA-MB435 = assay: Compound 7 panel screening; details: Homo sapiens, MDA-MB-435, breast carcinoma
Protocol: as §1, §2

MRC-5 [6] = assay: Compound 7 panel screening; details: Homo sapiens, MRC5, lung, normal, fibroblast
Protocol: as §1, §2

OVCAR-3 = assay: Compound 7 panel screening; details: Homo sapiens, ovary adenocarcinoma
Protocol: as §1, §2

Ramos = assay: Compound 7 panel screening; details: Homo sapiens, Burkitt's lymphoma
Protocol: as §1, §2

UT-SCC-24A = assay: Compound 7 panel screening; details: Homo sapiens, tongue squamous oral carcinoma
Protocol: as §1, §2

UT-SCC-34A = assay: Compound 7 panel screening; details: Homo sapiens, supraglottic larynx squamous oral carcinoma
Protocol: as §1, §2

Antimicrobial potency (MIC) S. aureus [1]: 5 µg/mL
MIC ([1]; Staphylococcus aureus, read-out: Antimicrobial potency (MIC) S. aureus): 2.5 µg/mL (≈ 6.07 µM)
MIC [2]: 5 µg/mL (≈ 12.1 µM)
Antimicrobial potency (MIC) MRSE [3]: 5 µg/mL
MIC ([3]; Staphylococcus epidermidis, ATCC 27626 / MRSE, read-out: Antimicrobial potency (MIC) MRSE): 2.5 µg/mL (≈ 6.07 µM)
MIC [4]: 15 µg/mL (≈ 36.4 µM)
Anticancer potency (IC50) A20 (A20; Example 2, highest concentration tested 500 μg/ml, * low solubility in the test media (Table 2)): 0.7 µg/mL
IC50 (DU-145): 15.2 µg/mL (≈ 37 µM)
IC50 (FEMX): 17.1 µg/mL (≈ 41.6 µM)
IC50 (HT-29): 15.4 µg/mL (≈ 37.5 µM)
IC50 (Kelly): 3.9 µg/mL (≈ 9.48 µM)
IC50 (MDA-MB435): 6.54 µg/mL (≈ 15.9 µM)
IC50 (OVCAR-3): 18.1 µg/mL (≈ 43.9 µM)
IC50 (Ramos): 2.61 µg/mL (≈ 6.34 µM)
IC50 (UT-SCC-24A): 14.2 µg/mL (≈ 34.5 µM)
IC50 (UT-SCC-34A): 16.2 µg/mL (≈ 39.3 µM)
Structure (SMILES): NCCNC(=O)C(CN)(Cc1ccc2ccccc2c1)Cc1ccc2ccccc2c1 [Compound 7, 3-amino-N-(2-aminoethyl)-2,2-bis(naphthalen-2-ylmethyl)propanamide]
EC50 (human red blood cells): 292 µg/mL (≈ 710 µM)
Anti-Cancer Selectivity MRC-5/A20 (A20; ratio of MRC-5 to A20 values): 19.3-20
Anti-Cancer Selectivity RBC/A20 (A20; ratio of RBC EC50 to A20 IC50): 417
Toxicity MRC-5 (MRC-5 [5]; Example 2): 14 µg/mL
IC50 (MRC-5 [5]; Homo sapiens, MRC5, Example 2): 13.5 µg/mL (≈ 32.8 µM)
IC50 (HUV-EC-C): 3.81 µg/mL (≈ 9.26 µM)
IC50 (MRC-5 [6]): 8.21 µg/mL (≈ 19.9 µM)
